Assay results: patent US20180153194A1, “AGENT HAVING ANTI-ICE NUCLEATION ACTIVITY” (THE SCHOOL CORPORATION KANSAI UNIVERSITY, priority 2015, published 2018)

Key:
[1] = Anti-ice nucleation active performance (supercooling acceleration), droplet-freezing method of Vali, silver iodide; type: physicochemical; settings: for anti-ice nucleation activity (in words): 2.0 mM aqueous solution; for improvement in anti-ice nucleation activity level of tri-peptide compared to the mono-amino acid: 2.0 mM
Protocol: Nine hundred microliters of an aqueous solution was prepared by dissolving silver iodide in ultra-pure water to a silver iodide concentration of 1.0 mg/mL.
(§1) A blank sample was prepared by mixing 100 μL of ultra-pure water with 900 μL of the aqueous solution in which silver iodide was dissolved.
(§2) The anti-ice nucleation active performance (supercooling acceleration performance) was measured by using the droplet-freezing method of Vali. More specifically, in accordance with the droplet-freezing method of Vali (FIG. 1), an aluminum film was placed on the copper plate of a cold plate chiller (CoolAce CCA-1000, Tokyo Rikakikai Co., Ltd.), and the film was coated with a silicone oil suspension diluted with acetone and chloroform (a solution of acetone:chloroform=1:2). Then, each sample for evaluation or the blank sample was dropped (10 μL each) on 30 points of the surface, the temperature was decreased at a rate of 1.0° C./min, and the temperature at which 50% of the 30 droplets were frozen was considered to be T50.
The droplet-freezing temperature of each sample was referred to as SampleT50, and the droplet-freezing temperature of the blank sample was referred to as BlankT50. Then, the anti-ice nucleation activity level ΔT50 (° C.) was calculated by the following formula:
ΔT50 (° C.)=BlankT50−SampleT50 Formula: […]
(§3) The results are average values of the results of the test performed three times.
as §1
Each sample for evaluation was prepared by mixing 100 μL of the aqueous solutions of Examples 2 and 11 and Comparative Example 10 with 900 μL of the aqueous solution in which silver iodide was dissolved. A blank sample was prepared by mixing 100 μL of ultra-pure water with 900 μL of the aqueous solution in which silver iodide was dissolved.
as §3

[2] = State of tofu after freezing and thawing, and breaking load of tofu; settings: frozen in liquid nitrogen
Protocol: Silken tofu (1.5 mm (length)×1.5 mm (width)×1.5 mm (height)) was immersed in the solution of Comparative Example 9 (water, blank) or Example 1 (tyrosine dimer) overnight. Thereafter, the tofu was taken out of the solution, the moisture was wiped off, and then the tofu was wrapped with wrap (plastic wrap). The tofu wrapped in plastic wrap was immersed in liquid nitrogen to be quickly frozen. The frozen tofu was then slowly thawed (warmed at 25° C.) or quickly thawed (warmed at 60° C.). […] The breaking load (N) of tofu was measured by a creep meter (RE2-33005C, Yamaden, Co., Ltd.).

Cooling curve of tofu = settings: for anti-ice nucleation activity towards tofu (in words): cooling curve compared to Comparative Example 9; for Freezing onset temperature / Temperature at which tofu was completely frozen / Time taken for tofu to be completely frozen: tofu immersed overnight, cooled in freezer at −20° C.
Protocol: Silken tofu (1.5 mm (length)×1.5 mm (width)×1.5 mm (height)) that was immersed overnight in the solution of Comparative Example 9 (blank), Example 1 (tyrosine dimer), or Example 2 (tyrosine trimer) was cooled.
A thermocouple thermometer (Horiba) was inserted in tofu, and the temperature was measured every 20 seconds in a freezer at −20° C. A cooling curve was then obtained based on the relationship between the temperature (° C.) and the cooling time (in seconds) (FIG. 9). Table 5 below and FIG. 9 show the temperature at which the tofu began to freeze (freezing onset temperature), the temperature at which the tofu was completely frozen, and the time taken for the tofu to be completely frozen.

Pseudomonas fluorescens = test: Effect on different kind of ice nucleation active substance, droplet-freezing method of Vali; type: physicochemical; settings: towards Pseudomonas fluorescens in place of silver iodide; average of three tests
Protocol: as §2, with “Then, each sample for evaluation or the blank sample was dropped (10 μL each) on 30 points of the surface, the temperature was decreased at a rate of 1.0° C./min, and the temperature at which 50% of the 30 droplets were frozen was considered to be T50.” left out
The droplet-freezing temperature of each sample was referred to as SampleT50, and the droplet-freezing temperature of the blank sample was referred to as BlankT50. Then, the anti-ice nucleation activity level ΔT50 (° C.) was calculated by the following formula: […]
A sample for evaluation of Example 1 was prepared in a manner similar to that described in Test Example 1, except that Pseudomonas fluorescens, which is the Pseudomonas bacterium, was used in place of silver iodide, which is an ice nucleation active substance. The anti-ice nucleation active performance (supercooling acceleration performance) was measured by using a test method similar to that described in Test Example 1. […]

[3] = Anti-ice nucleation activity test with respect to biological material (beef liver); settings: 10 μL, final concentration 0.2 mM, dropped on beef liver; blank ultra-pure water
Protocol: Ten microliters of an aqueous solution in which the aqueous solution of the anti-ice nucleation activator of Example 2 (tyrosine trimer) was diluted 10-fold with ultra-pure water (final concentration: 0.2 mM) was added dropwise on a beef liver (1 mm (length)×1 mm (width)×1 mm (height)). As a blank sample, ultra-pure water was used.
The anti-ice nucleation active performance (supercooling acceleration performance) was measured by using a method similar to the droplet-freezing method of Vali described in Test Example 1. The results are average values of the results of the test performed three times.

[4] = ΔT50 = BlankT50 − SampleT50, 2.0 mM aqueous solution (100 μL) mixed with 900 μL silver iodide 1.0 mg/mL, average of three tests

N[C@@H](Cc1ccc(O)cc1)C(=O)O [Comparative Example 1, tyrosine, reference compound]
anti-ice nucleation activity (in words) ([1]; silver iodide): no anti-ice nucleation activity | Anti-ice nucleation activity level [1, 4]: 0.3 °C

N[C@@H](Cc1ccccc1)C(=O)O [Comparative Example 4, phenylalanine, reference compound]
Anti-ice nucleation activity level [1, 4]: 0.5 °C

N[C@@H](CO)C(=O)O [Comparative Example 6, serine, reference compound]
Anti-ice nucleation activity level [1, 4]: 0.1 °C

C[C@@H](O)[C@H](N)C(=O)O [Comparative Example 8, threonine, reference compound]
Anti-ice nucleation activity level [1, 4]: 0.1 °C

Phe-Phe-Phe [Comparative Example 3, reference compound]
improvement in anti-ice nucleation activity level of tri-peptide compared to the mono-amino acid ([1]; silver iodide): no improvement in the anti-ice nucleation activity level | Anti-ice nucleation activity level [1, 4]: 0.3 °C

Ser-Ser-Ser [Comparative Example 5, reference compound]
improvement in anti-ice nucleation activity level of tri-peptide compared to the mono-amino acid ([1]; silver iodide): no improvement in the anti-ice nucleation activity level | Anti-ice nucleation activity level [1, 4]: 0.4 °C

Thr-Thr-Thr [Comparative Example 7, reference compound]
improvement in anti-ice nucleation activity level of tri-peptide compared to the mono-amino acid ([1]; silver iodide): no improvement in the anti-ice nucleation activity level | Anti-ice nucleation activity level [1, 4]: −0.3 °C

Tyr-Tyr [Example 1]
Anti-ice nucleation activity level [1, 4]: 2.6 °C | cavities in the tofu after thawing ([2]; slow or quick thawing): no cavities were formed | breaking load of the tofu ([2]; tofu immersed overnight, slow thawing (25° C.) and quick thawing (60° C.), compared to Comparative Example 9 (water)): low | anti-ice nucleation activity towards tofu (in words) (Cooling curve of tofu): exert anti-ice nucleation activity towards tofu | Freezing onset temperature (Cooling curve of tofu): −1.2° ° C. | Temperature at which tofu was completely frozen (Cooling curve of tofu): −6.8° ° C. | Time taken for tofu to be completely frozen (Cooling curve of tofu): 1120 s

Tyr-Tyr-Tyr [Example 2]
anti-ice nucleation activity (in words) ([1]; silver iodide): highest anti-ice nucleation activity level | improvement in anti-ice nucleation activity level of tri-peptide compared to the mono-amino acid ([1]; silver iodide): significantly improved anti-ice nucleation activity level | anti-ice nucleation active performance (in words) ([1]; all concentration levels within 0.1 to 10.0 mM, silver iodide): exhibited anti-ice nucleation active performance | Anti-ice nucleation activity level [1, 4]: 10.1 °C | anti-ice nucleation active performance (Pseudomonas fluorescens): 1.9 °C | Anti-ice nucleation activity level [3]: 0.6 °C | anti-ice nucleation activity towards tofu (in words) (Cooling curve of tofu): exert anti-ice nucleation activity towards tofu | Freezing onset temperature (Cooling curve of tofu): −0.8° ° C. | Temperature at which tofu was completely frozen (Cooling curve of tofu): −7.8° ° C. | Time taken for tofu to be completely frozen (Cooling curve of tofu): 1080 s

Tyr-Tyr-Tyr [Example 5]
Anti-ice nucleation activity level ([1]; tyrosine trimer concentration 0.1 mM, silver iodide 1.0 mg/mL): 2.3 °C

Tyr-Tyr-Tyr [Example 6]
Anti-ice nucleation activity level ([1]; tyrosine trimer concentration 0.2 mM, silver iodide 1.0 mg/mL): 3.7 °C

Tyr-Tyr-Tyr [Example 7]
Anti-ice nucleation activity level ([1]; tyrosine trimer concentration 0.5 mM, silver iodide 1.0 mg/mL): 1.8 °C

Tyr-Tyr-Tyr [Example 8]
Anti-ice nucleation activity level ([1]; tyrosine trimer concentration 1.0 mM, silver iodide 1.0 mg/mL): 5.7 °C

Tyr-Tyr-Tyr [Example 9]
Anti-ice nucleation activity level ([1]; tyrosine trimer concentration 5.0 mM, silver iodide 1.0 mg/mL): 9.2 °C

Tyr-Tyr-Tyr [Example 10]
Anti-ice nucleation activity level ([1]; tyrosine trimer concentration 10.0 mM, silver iodide 1.0 mg/mL): 9.2 °C

Tyr-Tyr-Tyr-Tyr (YYYY; printed: Tyr-Tyr-Tyr-Tyr) [Example 3]
Anti-ice nucleation activity level [1, 4]: 1.8 °C

Tyr-Tyr-Tyr-Tyr-Tyr (YYYYY; printed: Tyr-Tyr-Tyr-Tyr-Tyr) [Example 4]
Anti-ice nucleation activity level [1, 4]: 1.7 °C
